Results: US10238670B2, “9-aminomethyl minocycline compounds and methods of use thereof in urinary tract infection (UTI) treatment” (Paratek Pharmaceuticals, Inc., priority 2016, dated 2019)
Read-outs that look alike come from different tables or passages of the source.

Experiment: Phase 1b study in female adults with cystitis, plasma PK
Format: in vivo, human
Conditions: for Cmax / AUC(0-t) / Tmax / AUC(0-inf) / half-life / concentration at 5 day: plasma
Procedure: According to the study design, a randomized (1:1:1), open-label, parallel designed Phase 1b study comparing 3 dosing regimens of Compound 1 (9-[(2,2-dimethyl-propyl amino)-methyl-minocycline) in the treatment of female adults with cystitis was conducted. About 31 female patients with uncomplicated urinary tract infection (cystitis) who met inclusion and exclusion criteria were enrolled at 2-4 U.S. treatment centers. All enrolled subjects participated in the study for approximately 5-6 weeks. Following Screening of up to 48 hrs, eligible subjects were randomly assigned to receive one of 3 dosing regimens of Compound 1 treatment as shown below. Subjects in all treatment groups were domiciled for a 5-day treatment period. Details of the study are further described below.
Subjects were randomized (1:1:1) to one of the following treatment arms: • 1. Group 1: IV load, p.o. daily (200 mg Compound 1 IV every 24 hours (q24h) for 1 dose, followed by 300 mg p.o. q24h for a total of 5 days); • 2. Group 2: p.o. load, p.o. daily (300 mg Compound 1 p.o. every 12 hours (q12h) for 2 doses, followed by 300 mg p.o. q24h for a total of 5 days); • 3. Group 3: high p.o. load, high p.o. daily (450 mg Compound 1 p.o. q12h for 2 doses, followed by 450 mg p.o. q24h for a total of 5 days).
Blood samples were collected and analyzed for Compound 1 concentration at the following times. Pre-dose blood PK evaluations were based on blood samples collected within 10 min of each start (e.g., t=0 h dose for Day 1, t=24 h dose for Day 2, etc.). • Day 1: Pre-dose, and 0.75, 1, 2, 3, 4, 6, 8 and 12 hours after the t=0 h dose (12 h sample before the t=12 h dose for Groups 2 and 3); • Day 2: prior to the t=24 h dose; • Day 3: prior to the t=48 h dose; • Day 4: prior to the t=72 h dose; • Day 5: Pre-dose, and 0.5, 1, 2, 3, 4, 6, 8 and 12 hours after the t=96 h dose • Day 6: at t=120 h (24 hours after the t=96 h dose on Day 5)
Following the final oral doses on Day 5 the Compound 1 plasma concentration-time data for Groups 1, 2 and 3 were used to determine Cmax, Tmax, AUC24h, AUCt. Trough plasma concentrations (Ctrough) following each dose (Days 2 to 6) were also determined.
Blood samples for PK are collected at the time points specified below. • Day 1: Predose, and 0.75, 1, 2, 3, 4, 6, 8 and 12 hours after the t=0 h dose (12 h sample before the t=12 h dose for Groups 2 and 3); • Day 2: prior to the t=24 h dose; • Day 3: prior to the t=48 h dose; • Day 4: prior to the t=72 h dose; • Day 5: Predose, and 0.5, 1, 2, 3, 4, 6, 8 and 12 hours after the t=96 h dose • Day 6: at t=120 h (24 hours after the t=96 h dose on Day 5)
Blood was collected either by fresh venipuncture or via a cannula used solely for that purpose. The dates and times for all doses of test article and PK sample collections were recorded. For intravenously administered doses of test article, the start and stop times for each infusion were recorded. Immediately after the sample was collected, the tube was gently inverted 5 to 8 times to thoroughly mix the anticoagulant and then placed upright in a cryoblock or test tube rack surrounded by ice until centrifugation. Samples were centrifuged at 1500×g for 10 minutes at approximately 4° C. within 30 minutes of collection. The resultant plasma was divided into 2 equal aliquots, placed in individual cryovials, and immediately frozen at −20° C. or colder within 1 hour of collection. The samples were kept frozen at −20° C. or colder pending shipment to the bioanalytical laboratory.
The Compound 1 plasma concentration data was listed and summarized by time point and treatment group. The following PK parameters were estimated from the Compound 1 plasma concentration-time data: […]

[1] = Day 1, 300 mg po (n = 10), mean
[2] = Day 5, 300 mg po (n = 10), mean

CN(C)c1cc(CNCC(C)(C)C)c(O)c2c1C[C@H]1C[C@H]3[C@H](N(C)C)C(O)=C(C(N)=O)C(=O)[C@@]3(O)C(O)=C1C2=O [Compound 1, 9-[(2,2-dimethyl-propylamino)-methyl]-minocycline]
AUC0-12 [1]: 6260 ng·h/mL | Cmax [1]: 880 ng/mL | Cmin (Day 5, 200 mg IV, 300 mg po (n = 11), mean): 290 ng/mL | AUC0-24 [2]: 13500 ng·h/mL | Cmin [2]: 320 ng/mL | Cmin (Day 5, 450 mg po (n = 10), mean): 480 ng/mL | AUC(0-t) (female, human, intravenous, 200 mg, Day 1, 200 mg IV, 300 mg po (n = 11), mean, read-out: AUC0-24): 16000 ng·h/mL | Tmax (female, human, intravenous, 200 mg, Day 1, 200 mg IV, 300 mg po (n = 11), median, read-out: tmax): 0.75 h | Cmax (female, human, intravenous, 200 mg, Day 1, 200 mg IV, 300 mg po (n = 11), mean, read-out: Cmax): 2160 ng/mL | AUC(0-t) (female, human, intravenous, 200 mg, Day 1, IV_PO300, read-out: AUC(0-24 hrs), Geo. Mean): 15600 ng·h/mL | AUC(0-t) (female, human, intravenous, 200 mg, Day 1, IV_PO300, read-out: AUC(0-24 hrs), Mean): 16000 ng·h/mL | AUC(0-t) (female, human, intravenous, 200 mg, Day 1, IV_PO300, read-out: AUC(0-24 hrs), Median): 14800 ng·h/mL | AUC(0-inf) (female, human, intravenous, 200 mg, Day 1, IV_PO300, read-out: AUC(0-inf), Geo. Mean): 19700 ng·h/mL | AUC(0-inf) (female, human, intravenous, 200 mg, Day 1, IV_PO300, read-out: AUC(0-inf), Mean): 19900 ng·h/mL | AUC(0-inf) (female, human, intravenous, 200 mg, Day 1, IV_PO300, read-out: AUC(0-inf), Median): 19300 ng·h/mL | Cmax (female, human, intravenous, 200 mg, Day 1, IV_PO300, read-out: Cmax, Geo. Mean): 1960 ng/mL | Cmax (female, human, intravenous, 200 mg, Day 1, IV_PO300, read-out: Cmax, Mean): 2160 ng/mL | Cmax (female, human, intravenous, 200 mg, Day 1, IV_PO300, read-out: Cmax, Median): 1850 ng/mL | Tmax (female, human, intravenous, 200 mg, Day 1, IV_PO300, read-out: Tmax, Geo. Mean): 0.869 h | Tmax (female, human, intravenous, 200 mg, Day 1, IV_PO300, read-out: Tmax, Mean): 0.897 h | Tmax (female, human, intravenous, 200 mg, Day 1, IV_PO300, read-out: Tmax, Median): 0.75 h | half-life (female, human, intravenous, 200 mg, Day 1, IV_PO300, read-out: T½, Geo. Mean (converted)): 11.3 h | half-life (female, human, intravenous, 200 mg, Day 1, IV_PO300, read-out: T½, Mean (converted)): 11.4 h | half-life (female, human, intravenous, 200 mg, Day 1, IV_PO300, read-out: T½, Median (converted)): 11.5 h | AUC(0-t) (female, human, oral, 300 mg, Day 5, 200 mg IV, 300 mg po (n = 11), mean, read-out: AUC0-24): 13200 ng·h/mL | Cmax (female, human, oral, 300 mg, Day 5, 200 mg IV, 300 mg po (n = 11), mean, read-out: Cmax): 1120 ng/mL | Tmax (female, human, oral, 300 mg, Day 5, 200 mg IV, 300 mg po (n = 11), median, read-out: tmax): 3 h | AUC(0-t) (female, human, oral, 300 mg, Day 1, PO300, read-out: AUC(0-12 hrs), Geo. Mean): 6150 ng·h/mL | AUC(0-t) (female, human, oral, 300 mg, Day 1, PO300, read-out: AUC(0-12 hrs), Mean): 6260 ng·h/mL | AUC(0-t) (female, human, oral, 300 mg, Day 1, PO300, read-out: AUC(0-12 hrs), Median): 6520 ng·h/mL | Cmax (female, human, oral, 300 mg, Day 1, PO300, read-out: Cmax, Geo. Mean): 849 ng/mL | Cmax (female, human, oral, 300 mg, Day 1, PO300, read-out: Cmax, Mean): 877 ng/mL | Cmax (female, human, oral, 300 mg, Day 1, PO300, read-out: Cmax, Median): 916 ng/mL | Tmax (female, human, oral, 300 mg, Day 1, PO300, read-out: Tmax, Geo. Mean): 2.96 h | Tmax (female, human, oral, 300 mg, Day 1, PO300, read-out: Tmax, Mean): 2.99 h | Tmax (female, human, oral, 300 mg, Day 1, PO300, read-out: Tmax, Median): 3 h | AUC(0-t) (female, human, oral, 300 mg, Day 5, IV_PO300, read-out: AUC(0-24 hrs), Geo. Mean): 9550 ng·h/mL | AUC(0-t) (female, human, oral, 300 mg, Day 5, IV_PO300, read-out: AUC(0-24 hrs), Mean): 13200 ng·h/mL | AUC(0-t) (female, human, oral, 300 mg, Day 5, IV_PO300, read-out: AUC(0-24 hrs), Median): 15800 ng·h/mL | Cmax (female, human, oral, 300 mg, Day 5, IV_PO300, read-out: Cmax, Geo. Mean): 808 ng/mL | Cmax (female, human, oral, 300 mg, Day 5, IV_PO300, read-out: Cmax, Mean): 1120 ng/mL | Cmax (female, human, oral, 300 mg, Day 5, IV_PO300, read-out: Cmax, Median): 1300 ng/mL | concentration at 5 day (female, human, oral, 300 mg, Day 5, IV_PO300, read-out: Ctrough, Geo. Mean): 214 ng/mL | concentration at 5 day (female, human, oral, 300 mg, Day 5, IV_PO300, read-out: Ctrough, Mean): 292 ng/mL | concentration at 5 day (female, human, oral, 300 mg, Day 5, IV_PO300, read-out: Ctrough, Median): 378 ng/mL | Tmax (female, human, oral, 300 mg, Day 5, IV_PO300, read-out: Tmax, Geo. Mean): 2.83 h | Tmax (female, human, oral, 300 mg, Day 5, IV_PO300, read-out: Tmax, Mean): 2.6 h | Tmax (female, human, oral, 300 mg, Day 5, IV_PO300, read-out: Tmax, Median): 3 h | half-life (female, human, oral, 300 mg, Day 5, IV_PO300, read-out: T½, Geo. Mean (converted)): 13.2 h
